Laboratory results reported in US20030007949A1, “Adhesive treatment for tinea corporis” (CLOSURE MEDICAL CORPORATION, priority 2001, published 2003).

Test: Observation of haloprogin / 2-octyl cyanoacrylate monomer composition after preparation
Format: physicochemical
Conditions: 30 mg haloprogin in 2 mL 2-octyl cyanoacrylate monomer, observed at about one minute and at least twenty-four hours after preparation
Procedure: A 2-octyl cyanoacrylate monomer composition is prepared by adding 30 mg of haloprogin, an anti-fungal agent, to 2 mL of 2-octyl cyanoacrylate monomer. The mixture is sealed in a glass vial and stirred. The characteristics of the composition are observed at about one minute after preparation and later at least twenty-four hours after preparation.

premature polymerization caused in the monomer: does not cause premature polymerization
solubility of haloprogin in the monomer (sealed glass vial, stirred): soluble
SMILES: Clc1cc(Cl)c(OCC#CI)cc1Cl [haloprogin]
